Source: ChEMBL document CHEMBL4049402, “Synthesis and cytotoxic activity of novel tetrahydrobenzodifuran-imidazolium salt derivatives” (Bioorg Med Chem Lett, 2017)

What was measured:
Assay type in all cases: functional, cell-based
HL-60 = experiment: Cytotoxicity against human HL60 cells after 48 hrs by MTT assay
SMMC-7721 = experiment: Cytotoxicity against human SMMC7721 cells after 48 hrs by MTT assay
A549 = experiment: Cytotoxicity against human A549 cells after 48 hrs by MTT assay
MCF7 = experiment: Cytotoxicity against human MCF7 cells after 48 hrs by MTT assay
SW480 = experiment: Cytotoxicity against human SW480 cells after 48 hrs by MTT assay

Row | SMILES | IC50 (HL-60; Homo sapiens, HL-60, 48 h) [µM] | IC50 (SMMC-7721; Homo sapiens, SMMC-7721, 48 h) [µM] | IC50 (A549; Homo sapiens, A549, 48 h) [µM] | IC50 (MCF7; Homo sapiens, MCF7, 48 h) [µM] | IC50 (SW480; Homo sapiens, SW480, 48 h) [µM] | IC50 (HL-60; hl-60) [µM] | IC50 (MCF7; mcf7) [µM] | IC50 (SMMC-7721; smmc-7721) [µM] | IC50 (A549; a549) [µM] | IC50 (SW480; sw480) [µM]
1 | Cc1cc2c(cc1C)[n+](CC(=O)c1ccccc1)cn2Cc1c2c(cc3c1OCC3)OCC2 | 5.68 | 17.4 | > 20 | 7.8 | 11.9 | – | – | – | – | –
2 | Cc1cc2c(cc1C)[n+](Cc1ccc3ccccc3c1)cn2Cc1c2c(cc3c1OCC3)OCC2 [listing 1 of 2 here] | – | 2.99 | 4.34 | – | 3.48 | 1.06 | 3.94 | – | – | –
3 | Brc1ccc(C[n+]2ccn(Cc3c4c(cc5c3OCC5)OCC4)c2)cc1 | > 20 | > 20 | > 20 | > 20 | > 20 | – | – | – | – | –
4 | Cc1n(Cc2c3c(cc4c2OCC4)OCC3)c2ccccc2[n+]1Cc1ccc2ccccc2c1 | 1.76 | 5.5 | 9.14 | 3.4 | 4.1 | – | – | – | – | –
5 | Brc1ccccc1C[n+]1cn(Cc2c3c(cc4c2OCC4)OCC3)c2ccccc21 | 4.9 | > 20 | > 20 | 8.3 | 8.95 | – | – | – | – | –
6 | Cc1n(Cc2c3c(cc4c2OCC4)OCC3)c2ccccc2[n+]1CC(=O)c1ccc(Br)cc1 | 4.7 | 11.8 | > 20 | 6.43 | 8.29 | – | – | – | – | –
7 | Cc1ccc(C[n+]2cn(Cc3c4c(cc5c3OCC5)OCC4)c3cc(C)c(C)cc32)cc1 | – | – | – | – | – | 0.38 | 7.98 | 6.49 | 4.06 | 6.31
8 | O=C(C[n+]1ccn(Cc2c3c(cc4c2OCC4)OCC3)c1)c1ccc2ccccc2c1 | > 20 | > 20 | > 20 | > 20 | > 20 | – | – | – | – | –
9 | c1ccc2c(c1)ncn2Cc1c2c(cc3c1OCC3)OCC2 | > 20 | > 20 | > 20 | > 20 | > 20 | – | – | – | – | –
10 | Cc1ccc(C[n+]2cn(Cc3c4c(cc5c3OCC5)OCC4)c3ccccc32)cc1 | > 20 | > 20 | > 20 | > 20 | > 20 | – | – | – | – | –
11 | O=C(C[n+]1cn(Cc2c3c(cc4c2OCC4)OCC3)c2ccccc21)c1ccc(Br)cc1 | 5.81 | 5.95 | 16.1 | 5.12 | 5.11 | – | – | – | – | –
12 | Cc1cc2c(cc1C)[n+](Cc1ccc3ccccc3c1)cn2Cc1c2c(cc3c1OCC3)OCC2 [listing 2 of 2 here] | – | – | – | – | – | 0.29 | 8.34 | 2.98 | 3.62 | 6.84
13 | Cc1n(Cc2c3c(cc4c2OCC4)OCC3)c2ccccc2[n+]1Cc1ccccc1Br | > 20 | > 20 | > 20 | > 20 | > 20 | – | – | – | – | –
14 | O=C(C[n+]1ccn(Cc2c3c(cc4c2OCC4)OCC3)c1)c1ccc(Br)cc1 | > 20 | > 20 | > 20 | > 20 | > 20 | – | – | – | – | –
15 | Cc1ccc(C[n+]2c(C)n(Cc3c4c(cc5c3OCC5)OCC4)c3ccccc32)cc1 | > 20 | > 20 | > 20 | > 20 | > 20 | – | – | – | – | –
16 | Cc1nc2ccccc2n1Cc1c2c(cc3c1OCC3)OCC2 | > 20 | > 20 | > 20 | > 20 | > 20 | – | – | – | – | –
17 | Brc1ccccc1C[n+]1ccn(Cc2c3c(cc4c2OCC4)OCC3)c1 | > 20 | > 20 | > 20 | > 20 | > 20 | – | – | – | – | –
18 | Cc1cc2c(cc1C)[n+](CC(=O)c1ccc3ccccc3c1)cn2Cc1c2c(cc3c1OCC3)OCC2 | 1.95 | 5.64 | 7.77 | 8.67 | 14 | – | – | – | – | –
19 | c1ccc2cc(C[n+]3ccn(Cc4c5c(cc6c4OCC6)OCC5)c3)ccc2c1 | > 20 | > 20 | > 20 | > 20 | > 20 | – | – | – | – | –
20 | Cc1n(Cc2c3c(cc4c2OCC4)OCC3)c2ccccc2[n+]1Cc1ccc(Br)cc1 | 3.63 | 7.42 | > 20 | 4.86 | 7.22 | – | – | – | – | –
21 | Cc1cc2ncn(Cc3c4c(cc5c3OCC5)OCC4)c2cc1C | > 20 | > 20 | > 20 | > 20 | > 20 | – | – | – | – | –
22 | Cc1ccc(C[n+]2ccn(Cc3c4c(cc5c3OCC5)OCC4)c2)cc1 | > 20 | > 20 | > 20 | > 20 | > 20 | – | – | – | – | –
23 | c1ccc2cc(C[n+]3cn(Cc4c5c(cc6c4OCC6)OCC5)c4ccccc43)ccc2c1 | 2.3 | 5.66 | 10.7 | 2.62 | 4.11 | – | – | – | – | –
24 | Cc1cc2c(cc1C)[n+](Cc1ccccc1Br)cn2Cc1c2c(cc3c1OCC3)OCC2 | 3.18 | 5.96 | 8.64 | 7.29 | 7.87 | – | – | – | – | –
25 | COc1ccc(C(=O)C[n+]2cn(Cc3c4c(cc5c3OCC5)OCC4)c3cc(C)c(C)cc32)cc1 | 2.71 | 6.87 | 15.4 | 9.87 | 13.7 | – | – | – | – | –
26 | COc1ccc(C(=O)C[n+]2ccn(Cc3c4c(cc5c3OCC5)OCC4)c2)cc1 | > 20 | > 20 | > 20 | > 20 | > 20 | – | – | – | – | –
27 | COc1ccc(C(=O)C[n+]2c(C)n(Cc3c4c(cc5c3OCC5)OCC4)c3ccccc32)cc1 | 5.14 | > 20 | > 20 | 7.87 | 10.1 | – | – | – | – | –
